These results are taken from patent US8821864B2, “Compounds and methods useful for detection and treatment of cancer” (Roche MTM Laboratories AG, priority 2002, dated 2014).

This assay deals with HLA-A2.1 expressing cell lines presenting frameshift peptides. As to the kind of experiment: Cytotoxicity assay of CTL directed against cells displaying frameshift peptides. The assay is classed as cell-based, human. The settings on record: cold targets: T2 cells pulsed with peptide, inhibitor:target ratio 50:1. As to the method:
(FSP02); The antigen specificity of the FSP02 CTL line was tested in the presence of unlabeled cold targets, T2 cells pulsed with FSP02 (open squares) at an inhibitor:target ratio of 50:1. Lysis without cold targets is shown as a control (closed squares). All data are shown as the mean and standard deviation from 3 replicate wells. For experimental details see example 6.
(FSP06); The antigen specificity of the FSP06 CTL line was tested in the presence of unlabeled cold targets, T2 cells pulsed either with FSP06 (open squares) at an inhibitor:target ratio of 50:1. Lysis without cold targets is shown as a control (closed squares). All data are shown as the mean and standard deviation from 3 replicate wells. For experimental details see example 6.
CTL bulk cultures and/or CTL clones obtained according to the method described in Example 1 were tested for their cytotoxicity as follows:
Due to the limited amount of cell material clones were in some experiments pooled for the determination of the cytotoxicity. […]

Consider “SLYKFSPFPL [FSP06, frameshift peptide from OGT (−1), start amino acid 128]”, for which the “lysis of target cells by FSP CTL line (antigen specificity)” value was “Frameshift peptide specific and HLA-A2-restricted lysis of target cells”.

Take “RLSSCVPVA [FSP02, frameshift peptide from TGF-betaRII (−1), start amino acid 131]”: the “lysis of target cells by FSP CTL line (antigen specificity)” value is “Frameshift peptide specific and HLA-A2-restricted lysis of target cells”.
